What was measured:
[1] = test system: BALB/c 3T3 neo-only transfectants (18neo); experiment: 51Cr-release CTL assay with T1272-specific effectors on peptide-sensitized fibroblast targets; format: cell-based, BALB/c mice; details: for % specific 51Cr release, Immune spleen cells: 0.1 μM peptide on 18neo targets, effectors spleen cells of 10 μM T1272 peptide-pulsed spleen cell-immunized BALB/c mice restimulated with 0.1 μM T1272; for % specific 51Cr release, Immune spleen cells / % specific 51Cr release, CTL line: E/T 40:1; for % specific 51Cr release, CTL line: 1.0 μM peptide on 18neo targets, short-term T1272-specific BALB/c CTL line (3 weeks in culture); for peptide concentration able to sensitize targets for lysis: titrated in the killing assay, T1272 peptide-immune splenic CTL at 40:1 (FIG. 1C)
Procedure: CTL generation: BALB/c (H-2^d) mice were immunized intravenously with 20×10^6 spleen cells pulsed with various concentrations of T1272 peptide for two hours at 37° C. and irradiated at 2,000 rad (by the method of H. Takahashi, Y. Nakagawa, K. Yokomuro, & J. A. Berzofsky, submitted). One week later, immune spleen cells (3×10^6/ml) were restimulated for six days in vitro with various concentrations of T1272 peptide in 10% Rat-T Stim, without Con A (Collaboration Research Incorporated, Bedford, Mass.) in 24-well culture plates in complete T-cell medium (CTM)(14), a 1:1 mixture of RPMI 1640 and Eagle-Hanks amino acid medium containing 10% fetal bovine serum, 2 mM L-glutamine, penicillin (100 U/ ml), streptomycin (100 μg/ml), and 5×10^−5 M 2 mercaptoethanol.
CTL Assay. Cytolytic activity of the restimulated cells was measured as described (15) by using a six-hour assay with various ^51Cr-labeled targets. For testing the peptide specificity of CTL, effectors and ^51CR-labeled targets were mixed with various concentrations of peptide at the beginning of the assay. The percentage specific ^51CR release was calculated as 100(experimental release−spontaneous release)/(maximum release−spontaneous release). Maximum release was determined from supernatants of cells that were lysed by addition of 5% Triton X-100. Spontaneous release was determined from target cells incubated without added effector cells.
To more precisely identify the T-cell epitope recognized by T1272-specific BALB/c CTL, and to test the hypothesis that the response was specific for the neo-antigenic determinant created by the mutation, a series of peptides was synthesized and various concentrations of these peptides were individually added to effectors and ^51Cr-labeled fibroblast targets at the start of the assay culture. We measured the cytotoxic activity of two types of effector cells: spleen cells from mice immunized with peptide-pulsed cells stimulated once in vitro with 0.1 μM T1272 peptide (presumably polyclonal·effector populations), and a short-term CTL line (possibly an oligoclonal population, although only three weeks in culture).
CTL effectos were spleen cells derived from die 10 μM T1272 peptide-pulsed spleen cell-immunized BALB/c mice (restimulated 6 days with 0.1 μM T1272 peptide) (left) or a short-term T1272-specific BALB/c CTL line (after 3 weeks in culture) (right). BALB/c 3T3 neo-only transfectants (18neo) (H-2^d) plus 0.1 μM synthetic peptide were used as targets with BALB/c spleen effectors or with 1.0 μM peptide for the CTL line. […] The effector/target cell ratio was 40:1. The arrow and bold-face amino acids indicate the site of the 135 Cys to Tyr mutation. Underlined amino acids correspond to human p53 residues which differ from the mouse p53.

[2] = test system: HIV-1-IIIB gp160-gene transfected BALB/c.3T3 fibroblasts; experiment: CTL induced by i.v. immunization with peptide-pulsed irradiated cells, 51Cr release on gp160 transfectants; format: in vivo, BALB/c mice; details: cells pulsed with the 10-mer before immunization; without adding IL-2 exogenously (FIG. 9)
Procedure: CTL Generation. Immunizations were carried out either subcutaneously (s.c.) in the base of the tail, or intraperitoneally (i.p.), or intravenously (i.v.) from the tail vein with 27 G needle. Several weeks later, immune spleen cells (5×10^6/ml in 24-well culture plates in complete T-cell medium (a 1:1 mixture of RPMI 1640 and EHAA medium containing 10% FCS, 2 mM L-glutamine, 100 U/ml penicillin, 100 μg/ml streptomycin and 5×10^−5M 2-mercaptoethanol)) were restimulated for 6 days in vitro with mitomycin-C treated HIV-1-IIIB envelope gp160 gene transfected histocompatible BALB/c.3T3 fibroblasts alone or in the presence of 10% Rat Con-A supernatant-containing medium (Rat T-cell Monoclone) (Collaborative Research, Inc., Bedford, Mass.) or 10 U/ml of recombinant mouse IL-2 (rIL-2) (Genzyme, Boston, Mass.).
CTL assay. After culture for 6 days, cytolytic activity of the restimulated cells was measured as previously described (21) using a 6 hr assay with various ^51Cr-labelled targets, as indicated in the figure legends. […] The percent specific ^51Cr release was calculated as 100 (experimental release−spontaneous release)/(maximum release−spontaneous release). Maximum release was determined from supernatants of cells that were lysed by addition of 5% Triton-X 100. Spontaneous release was determined from target cells incubated without added effector cells. […]

[3] = test system: L-cell (H-2^k) transfectants expressing D^d, L^d and K^d; experiment: MHC-restriction mapping of T1272 peptide recognition by CTL; format: cell-based, mouse; details: 0.1 μM peptide T1272, K^d L-cell transfectants (FIG. 2B)
Procedure: MHC-restriction mapping. L-cell (H-2^k) transfectants expressing D^d (T4.8.3 (18), L^d (T1.1.1 (19) and K^d (B4III-2(20)) were used as targets, in the presence or absence of 0.1 μM peptide T1272. neo gene transfected BALB/c 3T3 fibroblasts (18neo) (H-2^d) (21) were used as a positive control, and neo gene-transfected L-cells L28 (H-2^k) (21) were used as a negative target control, also in the presence or absence of peptide.
The BALB/c 3T3 (18neo) fibroblasts (H-2^d) used as targets in these experiments express class I but not class II MHC gene products.
In this experiment, 2×10^3 51Cr-labeled targets were cultured with T1272-immune splenic effector cells (a short-term line stimulated twice with 0.1 μM peptide) at several effector/target cell ratios in the presence or absence of 0.1 μM peptide T1272. L-cell (H-2^k) transfectants expressing D^d (T4.8.3 (18)), L^d (T1.1.1 (19)) and K^d (B4III-2 (20)) were used as targets. neo gene transfected BALB/c 3T3 fibroblasts (isneo) (H-2^d) (21) were used as a positive control, and neo gene-transfected L-cells L28 (H-2^k) (21) were used as a negative target control. Spontaneous release was less than 20% of maximal release. Although background without peptide varied among the different transfectants from experiment to experiment, T1272 peptide-specific lysis was consistently seen only in the cells expressing K^d, in five different experiments. […]

For ALNKMFYQLAKT [Peptide T12], which “% specific 51Cr release, Immune spleen cells” value [1] is on record?
Its value is 9.7%.

What about the “% specific 51Cr release, CTL line” value [1] of the same sequence?
Its value is −9.1%.

FYQLAKTCPV [Peptide V10] was tested. Which “% specific 51Cr release, Immune spleen cells” value [1] did it give?
Its value is 62.7%.

What about the “% specific 51Cr release, CTL line” value [1] of the same sequence?
Its value is 53.7%.

How did the “% specific 51Cr release, Immune spleen cells” value [1] turn out when “KMFYQLAKTCPVQL [Peptide L14, C-terminal 14 residues of the T1272 peptide]” was run?
The value was 22.2%.

What about the “% specific 51Cr release, CTL line” value [1] of the same sequence?
The value was 22.1%.

For RGPGRAFVTI [Peptide 18IIIB-I-10], which “priming of CD8+ CTL by minimal peptide” value [2] is on record?
The value was “can prime CD8^+ CTL almost as well as 18IIIB”.

Which “peptide concentration able to sensitize targets for lysis” value [1] does the source give for RIQRGPGRAFVTIGK [Peptide P18IIIB] here?
The value was “not recognized at any concentration”.

With TYSPALNKMFYQL [Peptide L13] as the sequence, how does the “% specific 51Cr release, Immune spleen cells” value [1] read?
Its value is 14.7%.

What about the “% specific 51Cr release, CTL line” value [1] of the same sequence?
The value was −8.9%.

What does the source list for TYSPALNKMFYQLAKTCPVQL [Peptide T1272]?
% specific 51Cr release, Immune spleen cells [1]: 35.4%; % specific 51Cr release, CTL line [1]: 24.7%; peptide concentration able to sensitize targets for lysis [1]: < 0.1 µM; class I MHC restriction of peptide recognition by CTL [3]: restricted by the class I molecule K^d

Source: patent US20030086911A1, “Methods and compositions for the stimulation of human immunodeficiency virus-specific cytotoxic T lymphocytes employing autologous antigen-peripheral blood mononuclear cells” (Department of Health and Human Services, priority 1993, published 2003)
